The source of these data is ChEMBL document CHEMBL1201862, “PubChem BioAssay data set” (2004).

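In this assay, cells in 96-well plates receive the compound at five concentrations for 48 hours. Endpoints are linearly interpolated between the surrounding concentrations. Here, GI50 denotes the concentration required for 50% inhibition of growth.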 Calls of active or inactive are those of the source. Cut-off read from the data, not from the text of the source: active = GI50 up to about 1.1 µM and inactive = higher. A value given as a limit tells only on which side of the number the result lay.

Test systems include M14; NCI-H522; EKVX; NCI-H23; NCI-H226; SK-MEL-2; OVCAR-8; IGROV-1; HCT-15; OVCAR-3; LOX IMVI; KM12; HT-29; RPMI-8226; NCI/ADR-RES; A549; HCT-116; UO-31; SR; HCC 2998.
Common to all, as to assay: NCI-60 cell line screen, 48 h

Consider `COP(=O)(OC)C(N)CCSC` (stereo not given), for which the GI50 with M14, in the test with NCI-H522, in the test with EKVX, with NCI-H23, in the test on NCI-H226 and in the test with SK-MEL-2 was > 100 µM (inactive) throughout. Moreover, the GI50 was > 100 µM (inactive) in the test on OVCAR-8; > 100 µM (inactive) with IGROV-1; above 100 µM in the test on HCT-15; > 100 µM (inactive) in the test on OVCAR-3; > 100 µM (inactive) with LOX IMVI; > 100 µM (inactive) with KM12. Moreover, the GI50 in the test on HT-29, with RPMI-8226, with NCI/ADR-RES, in the test on A549, in the test on HCT-116 and in the test on UO-31 was > 100 µM (inactive) in each case. Besides, the GI50 in the test with SR was > 100 µM (inactive).
As to `CCCn1c(CN(Cc2nc3ccccc3n2CCC)Cc2nc3ccccc3n2CCC)nc2ccccc21`, the GI50 in the test with M14 was 2.46 µM (inactive); with NCI-H522, 4.63 µM (inactive); in the test with EKVX it was 0.966 µM (active); in the test with NCI-H23, 5.11 µM (inactive); in the test with NCI-H226 it was 6.47 µM (inactive); in the test on SK-MEL-2, 5.69 µM (inactive). Moreover, the GI50 was 2.25 µM (inactive) in the test on OVCAR-8; 1.94 µM (inactive) with IGROV-1; 4.39 µM with HCT-15; 3.37 µM (inactive) with OVCAR-3; 3.7 µM (inactive) with LOX IMVI; 4.68 µM (inactive) in the test with KM12. Moreover, the GI50 in the test with HT-29 is 2.25 µM (inactive); in the test on RPMI-8226 it was 2.04 µM (inactive); in the test with HCC 2998 it was 5.68 µM (inactive); in the test with NCI/ADR-RES, 8.69 µM (inactive); in the test with A549, 2.59 µM (inactive); in the test with HCT-116 it was 1.74 µM (inactive). For the same molecule, the GI50 in the test with UO-31 was 2.21 µM (inactive); in the test on SR, 2.58 µM (inactive).
In the case of `CS/C(=N\S(=O)(=O)c1ccc(Cl)cc1)NCCN/C(=N/S(=O)(=O)c1ccc(Cl)cc1)SC`, the GI50 in the test on M14 was > 100 µM (inactive); in the test with NCI-H522 it was 2.58 µM (inactive); with EKVX, 18.7 µM (inactive); in the test with NCI-H23 it was 48 µM (inactive); with SK-MEL-2, 30.1 µM (inactive); in the test with OVCAR-8, 19.9 µM (inactive). Besides, the GI50 with IGROV-1 was > 100 µM (inactive); in the test on HCT-15 it was above 100 µM; in the test on OVCAR-3, 32 µM (inactive); with LOX IMVI, > 100 µM (inactive); in the test with HT-29 it was > 100 µM (inactive); in the test with RPMI-8226, > 100 µM (inactive). Moreover, the GI50 in the test with HCC 2998, in the test on NCI/ADR-RES, in the test on HCT-116, in the test on UO-31 and in the test on SR was > 100 µM (inactive) throughout.
As for `COc1cccc(N/C(C)=C2/CCOC2=O)c1`, the GI50 with M14, in the test with NCI-H522, in the test with EKVX, with NCI-H23, in the test with NCI-H226 and with SK-MEL-2 was > 10 µM (inactive) each time. The GI50 with OVCAR-8 was > 10 µM (inactive); in the test with IGROV-1 it was > 10 µM (inactive); in the test with HCT-15, 5.08 µM; in the test on OVCAR-3, > 10 µM (inactive); in the test with LOX IMVI, > 10 µM (inactive); in the test on KM12, > 10 µM (inactive). Also, the GI50 in the test on HT-29, with RPMI-8226, with HCC 2998, with NCI/ADR-RES, with A549 and with HCT-116 was > 10 µM (inactive) each time. Besides, the GI50 was 8.15 µM (inactive) in the test on UO-31 and > 10 µM (inactive) in the test with SR.
On to `O=C1/C(=C\c2cccc(Oc3ccccc3)c2)SC(c2ccccc2)N1c1cccc([N+](=O)[O-])c1` (stereo not given), for which the GI50 was 65 µM (inactive) with M14; 57.5 µM (inactive) with NCI-H522; > 100 µM (inactive) in the test with EKVX; > 100 µM (inactive) with NCI-H23; 87.1 µM (inactive) in the test with NCI-H226; > 100 µM (inactive) in the test with SK-MEL-2. Also, the GI50 with OVCAR-8 is 35.5 µM (inactive); with HCT-15, above 100 µM; in the test with OVCAR-3, > 100 µM (inactive); in the test on LOX IMVI, 41.6 µM (inactive); in the test on KM12 it was 72.1 µM (inactive); in the test on HT-29, 33.9 µM (inactive). Besides, the GI50 was 34.7 µM (inactive) with RPMI-8226; > 100 µM (inactive) with HCC 2998; 82.8 µM (inactive) with NCI/ADR-RES; > 100 µM (inactive) in the test with A549; 32.7 µM (inactive) with HCT-116; 96.8 µM (inactive) in the test with UO-31. For the same molecule, in the test on SR, the GI50 is 32.3 µM (inactive).
For the molecule `CC(=O)Nc1cc2c(cc1O)CC[C@@H]1[C@@H]2CC[C@]2(C)[C@@H](O)CC[C@@H]12`, the GI50 in the test with M14 is 39.4 µM (inactive); in the test on NCI-H522, 20.8 µM (inactive); in the test with EKVX it was 33 µM (inactive); with NCI-H23, 47.3 µM (inactive); in the test with NCI-H226, 30.8 µM (inactive); with OVCAR-8, 44.3 µM (inactive). For the same molecule, the GI50 in the test with IGROV-1 was 82.4 µM (inactive); in the test on HCT-15 it was 15.3 µM; in the test on LOX IMVI, 34.6 µM (inactive); in the test on KM12, 15 µM (inactive); in the test on HT-29, 30.4 µM (inactive); in the test on RPMI-8226, 45.3 µM (inactive). Further, the GI50 was 37.2 µM (inactive) with HCC 2998; 19.9 µM (inactive) in the test with NCI/ADR-RES; 36.6 µM (inactive) in the test with A549; 21.5 µM (inactive) with UO-31; 20.8 µM (inactive) in the test with SR.
As to `O=S1(=O)CS(=O)(=O)OCCCO1`, the GI50 with M14 was > 100 µM (inactive); with NCI-H522, > 100 µM (inactive); with EKVX it was > 100 µM (inactive); in the test on NCI-H23, 68.5 µM (inactive); in the test with NCI-H226, > 100 µM (inactive); in the test with SK-MEL-2, > 100 µM (inactive). The GI50 was > 100 µM (inactive) with OVCAR-8; > 100 µM (inactive) in the test with IGROV-1; above 100 µM in the test on HCT-15; > 100 µM (inactive) in the test on OVCAR-3; > 100 µM (inactive) in the test on LOX IMVI; > 100 µM (inactive) in the test on KM12. For the same molecule, the GI50 with HT-29, with RPMI-8226, in the test on HCC 2998, in the test on NCI/ADR-RES, with A549 and with HCT-116 was > 100 µM (inactive) in each case. Further, the GI50 is > 100 µM (inactive) with UO-31 and 41.2 µM (inactive) in the test on SR.
For the molecule `O=C1C=C[C@@H](COC2OC(CO)C(O)C(O)C2O)O1` (stereo not given in full), the GI50 with NCI-H522 is 5.14 µM (inactive); in the test on EKVX, 20.4 µM (inactive); in the test on NCI-H23, 10.9 µM (inactive); in the test on NCI-H226, 35.7 µM (inactive); in the test on SK-MEL-2 it was 13.6 µM (inactive); in the test with OVCAR-8, 14.2 µM (inactive). Moreover, the GI50 in the test with IGROV-1 was 27.6 µM (inactive); in the test with HCT-15, 3.69 µM; with OVCAR-3, 16.8 µM (inactive); with LOX IMVI, 3.88 µM (inactive); in the test with KM12, 4.95 µM (inactive); in the test on HT-29, 5.86 µM (inactive). Further, the GI50 in the test with RPMI-8226 is 3.16 µM (inactive); in the test on HCC 2998, 40 µM (inactive); with NCI/ADR-RES it was 4.38 µM (inactive); in the test with A549, 22 µM (inactive); in the test on HCT-116 it was > 100 µM (inactive); in the test with UO-31 it was 50.2 µM (inactive).
